{
  "source": "ChEMBL document CHEMBL1155215",
  "about": "“Green chemoselective synthesis of thiazolo[3,2-a]pyridine derivatives and evaluation of their antioxidant and cytotoxic activities” (Bioorg Med Chem Lett, 2009)",
  "key": {"[1]": {"system": "HCT-116", "experiment": "Cytotoxicity against human HCT116 cells assessed as inhibition of cell proliferation at 1 mg/ml after 48 hrs by MTT assay", "assay_type": "functional", "conditions": "HCT-116, 48 h"}, "[2]": {"experiment": "Cytotoxicity against C57BL/6 mouse spleen lymphocytes assessed as inhibition of cell proliferation at 1 mg/ml after 48 hrs by MTT assay", "assay_type": "tissue-based, Lymphocyte"}, "[3]": {"experiment": "Antioxidant activity assessed as hydroxyl free radical scavenging activity at 1 mg assessed per mg", "assay_type": "functional"}, "[4]": {"system": "Radical scavenging activity", "experiment": "Antioxidant activity assessed as DPPH free radical scavenging activity at 1 mg assessed per mg", "assay_type": "functional"}},
  "data": [
    {"smiles": "N#CC1=C(N)n2c(s/c(=C\\c3cccs3)c2=O)=C(C#N)C1c1cccs1", "note": "(centres undefined)", "values": [
      {"measurement": "inhibition at 1000 µg/mL", "setting": "[1]", "result": 63.8, "unit": "%"},
      {"measurement": "inhibition at 48 h, 1 mg/ml", "setting": "[2]", "result": 55.4, "unit": "%"}
    ]},
    {"smiles": "N#CC1=C(N)N2C(=O)CSC2=C(C#N)C1c1ccc2c(c1)OCO2", "note": "(centres undefined)", "values": [
      {"measurement": "inhibition at 1000 µg/mL", "setting": "[1]", "result": 51.8, "unit": "%"},
      {"measurement": "inhibition at 48 h, 1 mg/ml", "setting": "[2]", "result": 62, "unit": "%"}
    ]},
    {"smiles": "N#CC1=C(N)n2c(s/c(=C\\c3ccc([N+](=O)[O-])cc3)c2=O)=C(C#N)C1c1ccc([N+](=O)[O-])cc1", "note": "(centres undefined)", "values": [
      {"measurement": "inhibition at 1000 µg/mL", "setting": "[1]", "result": 35.5, "unit": "%"},
      {"measurement": "inhibition at 48 h, 1 mg/ml", "setting": "[2]", "result": 51.7, "unit": "%"}
    ]},
    {"smiles": "Cc1ccc(C2C(C#N)=C(N)N3C(=O)CSC3=C2C#N)cc1", "note": "(centres undefined)", "values": [
      {"measurement": "inhibition at 1000 µg/mL", "setting": "[1]", "result": 47.4, "unit": "%"},
      {"measurement": "inhibition at 48 h, 1 mg/ml", "setting": "[2]", "result": 63.8, "unit": "%"}
    ]},
    {"smiles": "N#CC1=C(N)N2C(=O)CSC2=C(C#N)C1c1ccc(F)cc1", "note": "(centres undefined)", "values": [
      {"measurement": "inhibition at 1000 µg/mL", "setting": "[1]", "result": 47.8, "unit": "%"},
      {"measurement": "inhibition at 48 h, 1 mg/ml", "setting": "[2]", "result": 66.9, "unit": "%"}
    ]},
    {"smiles": "O=C1O[C@H]([C@@H](O)CO)C(O)=C1O", "values": [
      {"measurement": "inhibition", "setting": "[3]", "result": 109, "unit": "%"}
    ]},
    {"smiles": "N#CC1=C(N)N2C(=O)CSC2=C(C#N)C1c1ccccc1Cl", "note": "(centres undefined)", "values": [
      {"measurement": "inhibition at 1000 µg/mL", "setting": "[1]", "result": 54.1, "unit": "%"},
      {"measurement": "inhibition at 48 h, 1 mg/ml", "setting": "[2]", "result": 60.4, "unit": "%"}
    ]},
    {"smiles": "N#CC1=C(N)N2C(=O)CSC2=C(C#N)C1c1ccccc1", "note": "(centres undefined)", "values": [
      {"measurement": "inhibition at 1000 µg/mL", "setting": "[1]", "result": 50.8, "unit": "%"},
      {"measurement": "inhibition at 48 h, 1 mg/ml", "setting": "[2]", "result": 64.8, "unit": "%"}
    ]},
    {"smiles": "N#CC1=C(N)n2c(s/c(=C\\c3ccc(O)c([N+](=O)[O-])c3)c2=O)=C(C#N)C1c1ccc(O)c([N+](=O)[O-])c1", "note": "(centres undefined)", "values": [
      {"measurement": "inhibition", "setting": "[4]", "result": 109, "unit": "%"},
      {"measurement": "inhibition at 1000 µg/mL", "setting": "[1]", "result": 41.2, "unit": "%"},
      {"measurement": "inhibition at 48 h, 1 mg/ml", "setting": "[2]", "result": 5.31, "unit": "%"}
    ]},
    {"smiles": "N#CC1=C(N)n2c(s/c(=C\\c3cccc([N+](=O)[O-])c3)c2=O)=C(C#N)C1c1cccc([N+](=O)[O-])c1", "note": "(centres undefined)", "values": [
      {"measurement": "inhibition", "setting": "[4]", "result": 45.9, "unit": "%"},
      {"measurement": "inhibition", "setting": "[3]", "result": 56.8, "unit": "%"},
      {"measurement": "inhibition at 1000 µg/mL", "setting": "[1]", "result": 53, "unit": "%"},
      {"measurement": "inhibition at 48 h, 1 mg/ml", "setting": "[2]", "result": 60.4, "unit": "%"}
    ]},
    {"smiles": "N#CC1=C(N)N2C(=O)CSC2=C(C#N)C1c1ccc(Cl)cc1Cl", "note": "(centres undefined)", "values": [
      {"measurement": "inhibition at 1000 µg/mL", "setting": "[1]", "result": 29.9, "unit": "%"},
      {"measurement": "inhibition at 48 h, 1 mg/ml", "setting": "[2]", "result": 55.4, "unit": "%"}
    ]},
    {"smiles": "N#CC1=C(N)N2C(=O)CSC2=C(C#N)C1c1ccc(Br)cc1", "note": "(centres undefined)", "values": [
      {"measurement": "inhibition", "setting": "[4]", "result": 67.7, "unit": "%"},
      {"measurement": "inhibition at 1000 µg/mL", "setting": "[1]", "result": 43.5, "unit": "%"},
      {"measurement": "inhibition at 48 h, 1 mg/ml", "setting": "[2]", "result": 69.6, "unit": "%"}
    ]},
    {"smiles": "N#CC1=C(N)n2c(s/c(=C\\c3ccc(Br)cc3)c2=O)=C(C#N)C1c1ccc(Br)cc1", "note": "(centres undefined)", "values": [
      {"measurement": "inhibition", "setting": "[4]", "result": 108, "unit": "%"},
      {"measurement": "inhibition", "setting": "[3]", "result": 125, "unit": "%"},
      {"measurement": "inhibition at 1000 µg/mL", "setting": "[1]", "result": 56.6, "unit": "%"},
      {"measurement": "inhibition at 48 h, 1 mg/ml", "setting": "[2]", "result": 71.3, "unit": "%"}
    ]},
    {"smiles": "COc1ccc(C2C(C#N)=C(N)N3C(=O)CSC3=C2C#N)cc1", "note": "(centres undefined)", "values": [
      {"measurement": "inhibition", "setting": "[4]", "result": 140, "unit": "%"},
      {"measurement": "inhibition at 1000 µg/mL", "setting": "[1]", "result": 50.2, "unit": "%"},
      {"measurement": "inhibition at 48 h, 1 mg/ml", "setting": "[2]", "result": 70.6, "unit": "%"}
    ]}
  ]
}
